We go through 18 compounds from US20250002475A1 (EPICS THERAPEUTICS, priority 2023, published 2025).

In assay [1] the target is T1, recombinant METTL3/METTL14 complex (Homo sapiens, UniProt Q86U44).
T1 construct: purchased Active Motif 311970; host or cells: Sf9 cells
As to the kind of experiment: METTL3/14 Scintillation Proximity Assay (SPA), RNA methyltransferase activity. The note with it: 5.31 nM METTL3/14 complex, 250 nM RNA substrate, 1 μM 3H-SAM, 90 min; for compounds marked * best of the two separated forms. The format is biochemical.

In a further assay the test system is Caov-3 cells. The assay is described as follows: Caov-3 cellular viability assay (ATP-Lite, 72 h). The format is cell-based. The following applies: Homo sapiens, ATP-Lite luminescence, % viability relative to DMSO. The essentials:
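10000 cells/well treated 72 h at 37 °C, 5% CO2, in RPMI-1640 with 10% FBS and 0.1% DMSO final. Viability by ATP-Lite One Step luminescence. Expressed as % of DMSO control, with IC50 from each compound's concentration-response curve.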

The test system of the next assay is Kasumi-1 cells. The assay is described as follows: Kasumi-1 cellular viability assay (ATP-Lite, 72 h). The note with it: Homo sapiens, ATP-Lite luminescence, % viability relative to DMSO. The format is cell-based. A digest of the protocol:
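Kasumi-1 AML cells, 15000/well in RPMI-1640 with 10% FBS, were exposed to compound titrations (0.1% final DMSO) for 72 h at 37 °C, 5% CO2. ATP-Lite One Step luminescence gave % viability versus DMSO control, and IC50 came from the concentration-response.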

T1 sequence (Q86U44 whole entry): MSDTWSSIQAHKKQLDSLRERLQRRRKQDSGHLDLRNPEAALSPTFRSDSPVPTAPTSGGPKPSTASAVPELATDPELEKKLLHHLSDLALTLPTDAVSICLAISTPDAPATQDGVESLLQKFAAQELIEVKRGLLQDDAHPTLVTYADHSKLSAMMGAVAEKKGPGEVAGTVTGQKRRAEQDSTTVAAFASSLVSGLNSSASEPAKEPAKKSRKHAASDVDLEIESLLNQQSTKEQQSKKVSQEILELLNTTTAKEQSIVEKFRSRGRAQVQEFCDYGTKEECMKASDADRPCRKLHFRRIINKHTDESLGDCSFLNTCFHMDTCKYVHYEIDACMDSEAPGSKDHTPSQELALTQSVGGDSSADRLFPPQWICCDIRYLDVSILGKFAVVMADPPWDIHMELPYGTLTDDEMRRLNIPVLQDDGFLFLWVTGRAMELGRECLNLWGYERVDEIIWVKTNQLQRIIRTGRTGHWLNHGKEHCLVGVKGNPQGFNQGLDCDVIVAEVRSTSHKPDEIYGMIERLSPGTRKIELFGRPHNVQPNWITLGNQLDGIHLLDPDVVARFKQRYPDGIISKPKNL
T1 sequence (Q9HCE5 whole entry partner): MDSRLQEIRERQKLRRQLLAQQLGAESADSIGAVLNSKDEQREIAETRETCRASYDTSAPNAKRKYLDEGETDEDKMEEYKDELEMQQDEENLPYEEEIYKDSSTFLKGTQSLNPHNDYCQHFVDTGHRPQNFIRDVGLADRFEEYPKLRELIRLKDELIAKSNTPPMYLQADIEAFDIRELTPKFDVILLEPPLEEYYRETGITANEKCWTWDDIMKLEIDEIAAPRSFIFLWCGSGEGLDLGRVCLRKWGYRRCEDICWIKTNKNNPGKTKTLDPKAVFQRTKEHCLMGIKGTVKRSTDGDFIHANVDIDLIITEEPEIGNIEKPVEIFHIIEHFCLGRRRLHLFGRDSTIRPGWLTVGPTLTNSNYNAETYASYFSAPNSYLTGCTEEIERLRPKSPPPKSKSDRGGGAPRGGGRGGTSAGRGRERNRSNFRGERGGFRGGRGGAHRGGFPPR

One may read the IC50 as the concentration needed to halve the response being measured. Take `O=C(Nc1cc(=O)n2ccccc2n1)C1(c2ccc(N3CCC[C@@H](NCC4(C(F)(F)F)CC4)C3)cn2)COC1` [Compound 328, (R)-N-(4-oxo-4H-pyrido[1,2-a]pyrimidin-2-yl)-3-(5-(3-(((1-(trifluoromethyl)cyclopropyl)methyl)amino)piperidin-1-yl)pyridin-2-yl)oxetane-3-carboxamide]: the IC50 in assay [1] was no more than 50 nM; in the assay with Caov-3 cells, no more than 500 nM; with Kasumi-1 cells, 500 to 5000 nM.
The matching figures for `COc1cc(-c2cn(C(C)n3ccc(N4CCC[C@@H](NCC5CCC5)C4)cc3=O)cn2)c2cn[nH]c2c1` (single isomer, unassigned) [Compound 188]: no more than 50 nM, 500 to 5000 nM and 500 to 5000 nM.
In the case of `CC1(CN[C@@H]2CCCN(c3ccc(C4(n5cc(-c6cncc(C7CC7)c6)nn5)COC4)nc3)C2)CC1` [Compound 333, (R)-1-(6-(3-(4-(5-cyclopropylpyridin-3-yl)-1H-1,2,3-triazol-1-yl)oxetan-3-yl)pyridin-3-yl)-N-((1-methylcyclopropyl)methyl)piperidin-3-amine], the IC50 in assay [1] was no more than 50 nM; with Caov-3 cells, no more than 500 nM; in the assay with Kasumi-1 cells, no more than 500 nM.
For the compound `FC1(F)CC(c2ccc(N3CCC[C@@H](NCC4CC4)C3)cn2)(n2cc(-c3cncc(C4CC4)c3)nn2)C1` [Compound 315, (R)-N-(cyclopropylmethyl)-1-(6-(1-(4-(5-cyclopropylpyridin-3-yl)-1H-1,2,3-triazol-1-yl)-3,3-difluorocyclobutyl)pyridin-3-yl)piperidin-3-amine], the values for the IC50 (in assay [1]; in the assay with Caov-3 cells; in the assay with Kasumi-1 cells) were no more than 50 nM, 500 to 5000 nM and 500 to 5000 nM, respectively.
Consider `CC1(CN[C@@H]2CCCN(c3ccc(C4(c5nnc(-c6cncc(C7CC7)c6)s5)COC4)nc3)C2)CC1` [Compound 368, (R)-1-(6-(3-(5-(5-cyclopropylpyridin-3-yl)-1,3,4-thiadiazol-2-yl)oxetan-3-yl)pyridin-3-yl)-N-((1-methylcyclopropyl)methyl)piperidin-3-amine], for which the IC50 in assay [1] was no more than 50 nM; with Caov-3 cells it was no more than 500 nM; in the assay on Kasumi-1 cells, no more than 500 nM.
Turning to `COc1cncc(-c2ncn(C(C)n3ccc(N4CCC[C@@H](NCC5CCC5)C4)cc3=O)n2)c1` (single isomer, unassigned) [Compound 135], the values for the IC50 (in assay [1]; with Caov-3 cells; in the assay with Kasumi-1 cells) were no more than 50 nM, 500 to 5000 nM and 500 to 5000 nM, respectively.
On to `CC(n1cc(-c2cncc(N(C)C)c2)nn1)n1ccc(N2CCC[C@@H](NCC3CC3)C2)cc1=O` (single isomer, unassigned) [Compound 142], for which the IC50 in assay [1] was no more than 50 nM; in the assay with Caov-3 cells, no more than 500 nM; in the assay with Kasumi-1 cells, no more than 500 nM.
On to `CC(c1ccc(N2CCC[C@@H](NCC3CCC3)C2)cn1)n1cc(-c2cncc(C3CC3)n2)nn1` (stereo partly drawn) [Compound 292, (3R)—N-(cyclobutylmethyl)-1-(6-(1-(4-(6-cyclopropylpyrazin-2-yl)-1H-1,2,3-triazol-1-yl)ethyl)pyridin-3-yl)piperidin-3-amine], for which the IC50 was no more than 50 nM in assay [1], 500 to 5000 nM in the assay on Caov-3 cells and 500 to 5000 nM with Kasumi-1 cells.
As to `CC(n1cnc(-c2cc(N(C)C)cnn2)c1)n1ccc(N2CCC[C@@H](NCC3CC3)C2)cc1=O` (single isomer, unassigned) [Compound 243], the IC50 in assay [1] was no more than 50 nM; with Caov-3 cells, 500 to 5000 nM; in the assay on Kasumi-1 cells, 500 to 5000 nM.
Consider `O=c1cc(-c2cn(Cc3ccc(N4CCC[C@@H](NCC5CCC5)C4)nn3)nn2)nc2ccccn12` [Compound 017, (R)-2-(1-((6-(3-((cyclobutylmethyl)amino)piperidin-1-yl)pyridazin-3-yl)methyl)-1H-1,2,3-triazol-4-yl)-4H-pyrido[1,2-a]pyrimidin-4-one], for which the IC50 is no more than 50 nM in assay [1], greater than 5000 nM in the assay on Caov-3 cells and greater than 5000 nM with Kasumi-1 cells.
For the compound `c1ncc(C2CC2)cc1-c1cn(C2(c3ccc(N4CCC[C@@H](NC5CCC5)C4)cn3)COC2)nn1` [Compound 334, (R)-N-cyclobutyl-1-(6-(3-(4-(5-cyclopropylpyridin-3-yl)-1H-1,2,3-triazol-1-yl)oxetan-3-yl)pyridin-3-yl)piperidin-3-amine], the results for the IC50 (in assay [1]; in the assay with Caov-3 cells; in the assay with Kasumi-1 cells) were no more than 50 nM, no more than 500 nM and no more than 500 nM, respectively.
`CC(c1ccc(N2CCC[C@@H](NCC34CC(F)(C3)C4)C2)nn1)n1cc(-c2cncc(N3CCCC3)n2)nn1` (stereo partly drawn) [Compound 305, (3R)—N-((3-fluorobicyclo[1.1.1]pentan-1-yl)methyl)-1-(6-(1-(4-(6-(pyrrolidin-1-yl)pyrazin-2-yl)-1H-1,2,3-triazol-1-yl)ethyl)pyridazin-3-yl)piperidin-3-amine]: the IC50 is no more than 50 nM in assay [1], no more than 500 nM in the assay with Caov-3 cells and no more than 500 nM in the assay on Kasumi-1 cells.
In the case of `O=C(NCc1ccc(N2CCC[C@@H](NCC3CCC3)C2)nn1)c1cc(=O)n2ccsc2n1` [Compound 010, (R)-N-((6-(3-((cyclobutylmethyl)amino)piperidin-1-yl)pyridazin-3-yl)methyl)-5-oxo-5H-thiazolo[3,2-a]pyrimidine-7-carboxamide], the IC50 in assay [1] is 50 to 500 nM; in the assay on Caov-3 cells it was greater than 5000 nM; in the assay with Kasumi-1 cells, greater than 5000 nM.
For the compound `COc1cc(-c2cn(Cn3ncc(N4CCCC(NCC5CCC5)C4)cc3=O)nn2)c2cn[nH]c2c1` (stereo not drawn) [Compound 028, 5-(3-((cyclobutylmethyl)amino)piperidin-1-yl)-2-((4-(6-methoxy-1H-indazol-4-yl)-1H-1,2,3-triazol-1-yl)methyl)pyridazin-3(2H)-one], the half-inhibitory concentration (IC50) in assay [1] was no more than 50 nM; with Caov-3 cells, 500 to 5000 nM; with Kasumi-1 cells, 500 to 5000 nM.
Consider `CN(C)c1cncc(-c2cn(C3(c4ccc(N5CCC[C@@H](NCC6CC6)C5)cn4)COC3)nn2)c1` [Compound 184, (R)-5-(1-(3-(5-(3-((cyclopropylmethyl)amino)piperidin-1-yl)pyridin-2-yl)oxetan-3-yl)-1H-1,2,3-triazol-4-yl)-N,N-dimethylpyridin-3-amine], for which the IC50 in assay [1] is no more than 50 nM; in the assay with Caov-3 cells it was no more than 500 nM; in the assay with Kasumi-1 cells, no more than 500 nM.
Take `CC1(CN[C@@H]2CCCN(c3ccc(C4(C(=O)Nc5cc(=O)n6ccccc6n5)COC4)nc3)C2)CC1` [Compound 331, (R)-3-(5-(3-(((1-methylcyclopropyl)methyl)amino)piperidin-1-yl)pyridin-2-yl)-N-(4-oxo-4H-pyrido[1,2-a]pyrimidin-2-yl)oxetane-3-carboxamide]: the results for the IC50 (in assay [1]; in the assay on Caov-3 cells; in the assay on Kasumi-1 cells) were no more than 50 nM, no more than 500 nM and no more than 500 nM, respectively.
Turning to `COc1cc(-c2cn(Cc3ccc(N4CCC[C@@H](NCC5CCC5)C4)nc3)nn2)c2cn[nH]c2c1` [Compound 040, (R)-N-(cyclobutylmethyl)-1-(5-((4-(6-methoxy-1H-indazol-4-yl)-1H-1,2,3-triazol-1-yl)methyl)pyridin-2-yl)piperidin-3-amine], the IC50 is no more than 50 nM in assay [1], no more than 500 nM with Caov-3 cells and no more than 500 nM in the assay with Kasumi-1 cells.
As for `COc1cncc(-c2cn(Cc3ccc(N4CCC[C@@H](NCC5CCC5)C4)cc3)cn2)c1` [Compound 144, (R)-N-(cyclobutylmethyl)-1-(4-((4-(5-methoxypyridin-3-yl)-1H-imidazol-1-yl)methyl)phenyl)piperidin-3-amine], the half-inhibitory concentration (IC50) in assay [1] was no more than 50 nM; in the assay with Caov-3 cells, 500 to 5000 nM; in the assay with Kasumi-1 cells it was 500 to 5000 nM.
